In data set [1] the test system is Trypanosoma brucei. Put plainly: Antiparasitic activity against bloodstream form of Trypanosoma brucei 221 infected in mouse VSMC assessed as reduction in log10 RLU at 1 uM after 48 hrs by luciferase reporter gene assay. It is filed as functional. (Reporter assays use an easily measured gene product as a stand-in for the process of interest.)
Data set [2] relates to Trypanosoma brucei. As to the kind of experiment: Antiparasitic activity against bloodstream form of Trypanosoma brucei 221 infected in mouse VSMC assessed as parasitic proliferation at 1 uM after 48 hrs by luciferase reporter gene assay. It is filed as functional.
Data set [3] concerns Trypanosoma brucei. Put plainly: Antiparasitic activity against bloodstream form of Trypanosoma brucei 221 infected in mouse VSMC assessed as reduction in parasitic proliferation after 48 hrs by cell titer-glo based assay. The format is functional, organism-based. The note with it: Trypanosoma brucei, 221, VSMC.
For data set [4], the target named is Tyrosine-protein kinase JAK2 (Homo sapiens, UniProt O60674, V617F). As to the kind of experiment: Inhibition of JAK2 V617F mutant (unknown origin) using L-Ahx-IPTSPITTTYFFFKKK-COOH as substrate in presence of ATP.
Data set [5] in a line: Selectivity ratio of IC50 for mouse vSMC to IC50 for bloodstream form of Trypanosoma brucei 221. The note with it: read-out: Ratio IC50. It is filed as toxicity.
Data set [6] can be described thus: Selectivity ratio of IC50 for rat ins-1 cells to IC50 for bloodstream form of Trypanosoma brucei 221. The format is toxicity. The note with it: read-out: Ratio IC50.
Data set [7] concerns Trypanosoma brucei. Put plainly: Inhibition of GST-tagged Trypanosoma brucei ERK8 autophosphorylation expressed in Escherichia coli using myelin basic protein as substrate after 30 mins in presence of 32P-gamma-ATP by SDS-PAGE based autoradiography.
The test system of the next data set is INS1. Put plainly: Cytotoxicity against rat INS-1 cells assessed as cell growth inhibition. The format is cell-based.
Data set [8] in a line: Cytotoxicity against mouse VSMC assessed as cell growth inhibition.
Data set [9] is described as follows: Inhibition of GST-tagged Trypanosoma brucei ERK8 expressed in Escherichia coli using recombinant myelin basic protein as substrate after 30 mins in presence of 32P-gamma-ATP by Michaelis-Menten analysis.

pIC50, pKi: −log10 of the molar value. A value given as a limit tells only on which side of the number the result lay.

Sequence of Tyrosine-protein kinase JAK2 (O60674 whole entry V617F): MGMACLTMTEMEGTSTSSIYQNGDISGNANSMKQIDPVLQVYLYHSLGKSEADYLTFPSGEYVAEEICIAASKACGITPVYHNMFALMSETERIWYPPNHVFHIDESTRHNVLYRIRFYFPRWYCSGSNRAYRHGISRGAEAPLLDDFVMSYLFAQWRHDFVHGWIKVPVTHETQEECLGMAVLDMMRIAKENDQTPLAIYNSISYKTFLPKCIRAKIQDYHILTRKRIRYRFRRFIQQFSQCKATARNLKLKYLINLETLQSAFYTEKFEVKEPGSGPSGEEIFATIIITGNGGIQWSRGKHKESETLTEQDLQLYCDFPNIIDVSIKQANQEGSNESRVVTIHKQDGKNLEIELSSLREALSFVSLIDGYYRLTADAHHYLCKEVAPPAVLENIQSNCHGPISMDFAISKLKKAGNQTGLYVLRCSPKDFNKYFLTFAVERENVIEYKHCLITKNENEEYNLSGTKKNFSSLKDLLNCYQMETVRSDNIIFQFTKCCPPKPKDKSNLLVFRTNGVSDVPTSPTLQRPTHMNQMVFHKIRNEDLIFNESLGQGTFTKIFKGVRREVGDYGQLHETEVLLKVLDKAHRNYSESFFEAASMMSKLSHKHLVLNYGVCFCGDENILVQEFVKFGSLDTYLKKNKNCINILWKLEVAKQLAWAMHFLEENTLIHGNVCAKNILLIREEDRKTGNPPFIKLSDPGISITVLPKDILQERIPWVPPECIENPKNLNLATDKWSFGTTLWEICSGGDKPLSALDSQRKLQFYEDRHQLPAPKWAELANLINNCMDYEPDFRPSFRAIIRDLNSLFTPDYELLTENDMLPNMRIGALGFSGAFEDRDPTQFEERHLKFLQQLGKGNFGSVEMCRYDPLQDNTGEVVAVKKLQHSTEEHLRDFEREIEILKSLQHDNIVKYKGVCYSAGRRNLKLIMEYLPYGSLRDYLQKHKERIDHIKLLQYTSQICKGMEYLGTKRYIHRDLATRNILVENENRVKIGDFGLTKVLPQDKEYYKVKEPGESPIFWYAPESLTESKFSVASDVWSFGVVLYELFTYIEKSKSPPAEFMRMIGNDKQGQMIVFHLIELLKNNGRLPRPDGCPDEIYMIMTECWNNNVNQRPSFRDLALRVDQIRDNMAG

In the case of `CCc1cnn2c(NCc3ccc[n+]([O-])c3)cc(N3CCCC[C@H]3CCO)nc12` [DINACICLIB], the “reduction in log10 RLU” value with Trypanosoma brucei [1] was 2. In the data set with Trypanosoma brucei [2], the Activity is listed as 1.13%. Also, the pIC50 – broadly, the IC50 on a negative log10 scale, so that one unit is a factor of ten – with Trypanosoma brucei [3] is 7.10.
For `O=C1c2ccccc2-c2n[nH]c3cccc1c23` the same measures were 2, 0.26% and 6.24.
Regarding `CCS(=O)(=O)Nc1ccc2c(c1)/C(=C(/Nc1ccc(CN3CCCCC3)cc1)c1ccccc1)C(=O)N2` [HESPERADIN], the “reduction in log10 RLU” value in the data set with Trypanosoma brucei [1] came out at 2. In the data set on Trypanosoma brucei [2], the Activity is 0.27%.
With `Nc1ccc(-c2ccc3ncc4ccc(=O)n(-c5cccc(C(F)(F)F)c5)c4c3c2)cn1`, the “reduction in log10 RLU” value in the data set on Trypanosoma brucei [1] stood at 2. In addition, the Activity with Trypanosoma brucei [2] is 0.6%. Also, the negative logarithm of the IC50 (pIC50) in the data set with Trypanosoma brucei [3] is 6.00.
As to `Cc1cc(Nc2nc(N[C@@H](C)c3ccc(F)cc3)c(C#N)cc2F)n[nH]1`, the results for the pKi in [4] and in [9] were 9.35 and 5.90, respectively. Besides, the “reduction in log10 RLU” value in the data set on Trypanosoma brucei [1] is 2. For the same compound, the selectivity ratio in [5] was in the range of 208 to 210; in data set [6], 83 to 84. Also, the inhibition – broadly, the drop in the measured response relative to a control, in per cent – in the data set on Trypanosoma brucei [7] was < 20%. The Activity in the data set on Trypanosoma brucei [2] is listed as 0.26%. The pIC50 in the data set on INS1 (Rattus norvegicus, INS1) was 5.00; in data set [8] (Mus musculus, VSMC), 4.60; in the data set on Trypanosoma brucei [3], 6.92. For the same compound, the “inhibition (INH)” value in the data set with INS1 (rat, ins1) is listed as “Dose-dependent effect”; in [8] (mouse), “Dose-dependent effect”.
Consider `Cn1c(=O)n(-c2ccc(C(C)(C)C#N)cc2)c2c3cc(-c4cnc5ccccc5c4)ccc3ncc21` [DACTOLISIB], for which the “reduction in log10 RLU” value in the data set on Trypanosoma brucei [1] worked out at 2. Moreover, in the data set on Trypanosoma brucei [2], the Activity was determined as 0.49%.
On to `Cc1ncc(-c2ccnc(Nc3ccc(S(C)(=O)=O)cc3)n2)n1C(C)C` [AZD-5438], for which the “reduction in log10 RLU” value in the data set on Trypanosoma brucei [1] was determined as 2. In addition, the inhibition in the data set with Trypanosoma brucei [7] is < 20%. The Activity with Trypanosoma brucei [2] stood at 0.45%. For the same compound, the pIC50 in the data set on Trypanosoma brucei [3] is 6.68.
For `COc1ncc(-c2ccc3nccc(-c4ccnnc4)c3c2)cc1NS(=O)(=O)c1ccc(F)cc1F` [OMIPALISIB], the “reduction in log10 RLU” value in the data set on Trypanosoma brucei [1] was 2. Also, in the data set on Trypanosoma brucei [2], the Activity came out at 0.21%. Further, the pIC50 with Trypanosoma brucei [3] is 6.95.
As to `COc1ccc(-c2ccc3ncc4c(c3c2)n(-c2ccc(N3CCNCC3)c(C(F)(F)F)c2)c(=O)n4C)cn1` [BGT-226 FREE BASE], the “reduction in log10 RLU” value with Trypanosoma brucei [1] is recorded as 2. For the same compound, in the data set on Trypanosoma brucei [2], the Activity is recorded as 0.12%. Further, the pIC50 with Trypanosoma brucei [3] is 6.02.
Regarding `CC(=O)NCC(=O)N1[C@@H]2CC[C@H]1c1ccc(Nc3ncc(C(F)(F)F)c(NC4CCC4)n3)cc12` [PF-03814735], in the data set with Trypanosoma brucei [1], the “reduction in log10 RLU” value came to 2. Moreover, the inhibition in the data set with Trypanosoma brucei [7] is < 20%. For the same compound, in the data set on Trypanosoma brucei [2], the Activity is given as 1.16%. The pIC50 with Trypanosoma brucei [3] was 6.59.
Regarding `CC(C)(C)c1cnc(CSc2cnc(NC(=O)C3CCNCC3)s2)o1` [BMS-387032], in the data set with Trypanosoma brucei [1], the “reduction in log10 RLU” value stood at 2. For the same compound, the Activity in the data set on Trypanosoma brucei [2] was 0.36%. The pIC50 in the data set on Trypanosoma brucei [3] is 6.92.
For `CNC(=O)c1nn(C)c2c1C(C)(C)Cc1cnc(Nc3ccc(N4CCN(C)CC4)cc3)nc1-2` [MILCICLIB], in the data set with Trypanosoma brucei [1], the “reduction in log10 RLU” value is 2. For the same compound, the inhibition in the data set on Trypanosoma brucei [7] is < 20%. Moreover, in the data set with Trypanosoma brucei [2], the Activity turned out to be 0.58%. In addition, the pIC50 in the data set on Trypanosoma brucei [3] is 6.21.

Source of the values: ChEMBL document CHEMBL4428064, “Discovery and antiparasitic activity of AZ960 as a Trypanosoma brucei ERK8 inhibitor” (Bioorg Med Chem, 2016).
